Laboratory results taken from patent US20070196344A1, “Methods for identifying materials that can help regulate the condition of mammalian keratinous tissue” (The Procter & Gamble Company, priority 2006, published 2007).

Experiments:
[1] = test system: Procollagen I; assay: Procollagen I ELISA on extracts of treated MatTek EpiDermFT (EFT-200) full thickness skin equivalent cultures; format: cell-based, human; conditions: topical 0.5%, 2.0% in water, 20-24 hours, EFT-200 cultures, vs vehicle Control, dose-responsive
Protocol: (§1) To evaluate skin anti-aging benefits of n-acetyl glucosamine and niacinamide. An in vitro skin biomarker experiment is conducted using the MatTek Human Skin EpiDermFT Skin Model (EFT 200; MatTek Corp., Ashland, Mass. USA). The MatTek Skin Model is a full thickness culture system that emulates normal human skin properties and function. It contains a three-dimensional, highly differentiated human epidermis with 8-12 cell layers including basal, spinous, granular and stratum corneum layers; the epidermis is grown above a human dermal fibroblast-containing collagen matrix. The MatTek cultures are air-interfaced, so that test substances can be applied topically to the stratum corneum surface. The cultures are supplied in 24-well, medium-supplemented agarose gels.
(§2) MatTek EFT-200 full thickness skin equivalent cultures used are examined for visual defects and equilibrated overnight after their arrival from the supplier. After treatment with test materials the cultures' viability is confirmed through MTT viability assay. […]
(§3) After treatment for 20-24 hours, replicate (3) cultures are extracted using a mild extraction buffer (T-per). The extract is then analyzed for hyaluronic acid and procollagen-1.
(§4) • 1. […] Analyze supernatant with the Micro BCA kit to quantitate protein concentration. • 4. […]

[2] = test system: Hyaluronic Acid; assay: Hyaluronic acid ELISA on extracts of treated MatTek EpiDermFT (EFT-200) full thickness skin equivalent cultures; format: cell-based, human; conditions: topical 0.5%, 1.0%, 2.0% in water, 20-24 hours, EFT-200 cultures, vs vehicle Control; dose-responsive
Protocol: as §1, §2, §3, §4

## CC(=O)N[C@@H]1[C@@H](O)[C@H](O)[C@@H](CO)O[C@H]1O [n-Acetyl Glucosamine]
[1]
  expression of procollagen 1: significantly increased over Control
[2]
  expression of hyaluronic acid: significantly increased over Control
